Data from article PMC5854716, “Synthesis, molecular docking, ctDNA interaction, DFT calculation and evaluation of antiproliferative and anti-Toxoplasma gondii activities of 2,4-diaminotriazine-thiazole derivatives” (Medicinal Chemistry Research, 2018).
≈ marks a conversion by molar mass, not a printed value.

What was measured:
[1] = test system: mouse L929 fibroblast; experiment: Cell viability assay (MTT), L929; assay type: cell-based; conditions: 24 h; for CC30 L929: concentration for 30% proliferation inhibition
Method: (§1) The epithelial cell line VERO (ATCC-Catalog No. CCL-81^TM), derived from the kidney of the African green monkey, Cercopithecus aethiops and fibroblast cell line L-929 (ATCC-Catalog No. CCL-1^TM), derived from Mus musculus (http://www.atcc.org) were grown in Iscoves’s Modified Dulbecco’s Medium (IMDM) supplemented with 10% (v/v) fetal bovine serum (FBS), plus 2 mM L-glutamine, 100 U/ml penicillin, 100.00 µg/ml streptomycin, 5 × 10^−5 M 2-mercaptoethanol and maintained at 37 °C in a 10% CO2 atmosphere. Subcultures were performed via enzymatic cell dissociation in 0.25% trypsin. After dissociation, the cells were placed in culture medium at 4 °C with 10% FBS to inhibit the action of trypsin. The isolated cells were centrifuged for 10 min at 1000×g at 4 °C, and the cells were grown in new bottles. This procedure was repeated when cells reached a confluence of ~90%. All commercial reactants and solvents were purchased from either Sigma-Aldrich Laborchemikalien GmbH (Dzitko et al. [2014]).
(§2) Suspensions of the compounds 4a–l were freshly prepared (5 mg/ml DMSO) before the cells were exposed, and diluted to appropriate concentrations; 0.9, 1.8, 3.9, 7.8, 15.6, 31.2, 62.5, and 125.00 μg/ml with the culture medium. Cells treated with 2.5% DMSO-solvent served as a control in each experiment.
The effects of tested compounds on the viability of mouse fibroblasts L929 and […] VERO cells were evaluated using the MTT assay. The MTT assay was used according to international standards: ISO 10993-5:2009 (Tests for in vitro cytotoxicity; http://www.iso.org/iso/catalogue_detail.htm? csnumber = 36406). L929 and VERO cells were plated into 96-well plates at a density of 1.0 × 10^4/100 μl/well in culture medium and allowed to attach for 24 h before treatment. Afterwards, culture medium in the plates was replaced by 100 μl compounds suspension at concentration of 0–125 μg/ml and the cells were exposed for 24 h. Then 1 mg/ml MTT (50 μl/well) was added to each well and incubated at 37 °C, 10 % CO2 for 2 h. Mitochondrial dehydrogenases of viable cells reduce the yellowish water-soluble MTT to water-insoluble formazan crystals, which were solubilized with dimethyl sulfoxide (DMSO). The cell culture medium was aspirated cautiously, after which 150 μl DMSO was added to each well and mixed thoroughly. Optical density (OD) was read on the ELISA reader (Multiskan EX, Labsystems; http://www.mtxlsi.com/multiskan_EX.htm) at 550 nm. The results were expressed as percentage viability compared with the treated 2.5% DMSO controls. All experiments were performed in triplicate.

[2] = test system: Toxoplasma gondii BK strain; experiment: T. gondii tachyzoite intracellular proliferation in VERO host cells ([3H]uracil incorporation); assay type: cell-based; conditions: VERO host cells; for activity at 0.9 µg/mL / activity at 1.8 µg/mL / activity at 3.9 µg/mL / activity at 7.8 µg/mL / activity at 15.6 µg/mL / activity at 31.2 µg/mL / activity at 62.5 µg/mL / activity at 125 µg/mL / IC50: Toxoplasma gondii; for IC50 / IC50 (50% inhibition of T. gondii proliferation in vitro): GraphPad Prism curves; for IC50: read-out: IC50 (50% inhibition of T. gondii proliferation in vitro)
Method: as §1, §2
Stock solutions of the Sulfadiazine (100 mg/ml 1 N NaOH; Catalog No. S8626) was freshly prepared before each experiment, and diluted to appropriate concentrations: 5.00, 25.00, 50.00, 125.00, 250.00, 500.00, 1250.00, and 2500.00 μg/ml, respectively in IMDM complete medium. All commercial reactants and solvents were purchased from either Sigma-Aldrich Laborchemikalien GmbH.
Tachyzoites of T. gondii, BK strain, were maintained in female C57BL/6 (H-2^b) and BALB/c (H-2^d) mice (with genetically determined high and low susceptibility, respectively to Toxoplasma infection) via serial intraperitoneal inoculation of 10^5–10^6 parasites per mouse in phosphate-buffered saline (PBS). After 48 to 96 h, parasites were harvested via peritoneal lavage using PBS, pH 7.2, and centrifuged at 200×g for 5 min to remove blood cells and cell debris. The supernatant containing tachyzoites was collected and centrifuged again at 2000×g for 15 min. The final pellet was resuspended in IMDM, quantified in a Burker’s chamber, and used in experimental assays. Inbred mice were kept under standard laboratory conventional conditions. All experimental procedures were conducted according to guidelines of the 9. Local Ethics Commission for Experiments on Animals in Lodz.
VERO, (2 × 10^4 cells/100 µl/well) were grown in complete medium (IMDM) on 96-well plates. After 24 h incubation, a medium was removed and then T. gondii […] tachyzoites, suspended in culture medium supplemented with 0.9–125.00 μg/ml diaminotriazines 4a–l and as a control-sulfadiazine (5.0–2500.0 μg/ml), were added (2 × 10^5 tachyzoites/200 µl/well) to the cell monolayers. After subsequent 48 h incubation 1 µCi/well of [^3H] uracil (Moravek Biochemicals Inc., Brea, CA, USA) was applied to each microculture for further 18–20 h. The amount of the isotope incorporated into the parasite nucleic acid pool, corresponding to the parasite growth, was measured by liquid scintillation counting with 1450 Microbeta Plus Liquid Scintillation Counter (Wallac Oy, Turku, Finland). The cpms of host cells alone (below 250/microculture) were subtracted from cpms of T. gondii infected microcultures (Dzitko et al. [2014]).

Row | Compound | CC30 L929 [1] | activity at 0.9 µg/mL ([2]; 0.9 µg/ml) | activity at 1.8 µg/mL ([2]; 1.8 µg/ml) | activity at 3.9 µg/mL ([2]; 3.9 µg/ml) | activity at 7.8 µg/mL ([2]; 7.8 µg/ml) | activity at 15.6 µg/mL ([2]; 15.6 µg/ml) | activity at 31.2 µg/mL ([2]; 31.2 µg/ml) | activity at 62.5 µg/mL ([2]; 62.5 µg/ml) | activity at 125 µg/mL ([2]; 125.0 µg/ml) | IC50 [2] | Viability L929 ([1]; 0.9 µg/ml) | Viability L929 ([1]; 1.8 µg/ml) | Viability L929 ([1]; 3.9 µg/ml) | Viability L929 ([1]; 7.8 µg/ml) | Viability L929 ([1]; 15.6 µg/ml) | Viability L929 ([1]; 31.2 µg/ml) | Viability L929 ([1]; 62.5 µg/ml) | Viability L929 ([1]; 125.0 µg/ml) | T. gondii intracellular proliferation ([2]; 0.9 µg/ml) | T. gondii intracellular proliferation ([2]; 1.8 µg/ml) | further results
1 | C/C(=N\Nc1nc(-c2ccc(I)cc2)cs1)c1ccc(Nc2nc(N)nc(N)n2)cc1 [Compound 4e, (E)-N^2-(4-(1-(2-(4-(4-iodophenyl)-1,3-thiazol-2-yl)hydrazinylidene)ethyl)phenyl)-1,3,5-triazine-2,4,6-triamine] | >125.0 µg/mL | 103% | 104% | 99.9% | 92.8% | 80.7% | 75.1% | 48.7% | 14.6% | 49.2 µg/mL (≈ 90.5 µM) |  |  |  |  |  |  |  |  |  |  | 
2 | C/C(=N\Nc1nc(-c2cc3ccccc3oc2=O)cs1)c1ccc(Nc2nc(N)nc(N)n2)cc1 [Compound 4f, (E)-3-(2-(2-(1-(4-(4,6-diamino-1,3,5-triazin-2-yloamino)phenyl)ethylidene)hydrazinyl)thiazol-4-yl)-2H-chromen-2-on] | >125.0 µg/mL |  |  |  |  |  |  |  |  |  | 98.99% | 102.21% | 101.95% | 96.25% | 100.89% | 104.60% | 109.54% | 108.66% | 101.02% | 98.89% | T. gondii intracellular proliferation ([2]; 3.9 µg/ml): 75.89%; T. gondii intracellular proliferation ([2]; 7.8 µg/ml): 64.30%; T. gondii intracellular proliferation ([2]; 15.6 µg/ml): 55.65%; T. gondii intracellular proliferation ([2]; 31.2 µg/ml): 50.52%; T. gondii intracellular proliferation ([2]; 62.5 µg/ml): 37.17%; T. gondii intracellular proliferation ([2]; 125.0 µg/ml): 14.03%; IC50 (50% inhibition of T. gondii proliferation in vitro) [2]: 21.53 µg/mL
3 | CC(=O)Nc1ccc(-c2csc(N/N=C(\C)c3ccc(Nc4nc(N)nc(N)n4)cc3)n2)cc1 [Compound 4g, (E)-N^2-(4-(2-(2-(1-(4-(4,6-diamino-1,3,5-triazin-2-yloamino)phenyl)ethylidene)hydraziny)thiazol-4-yl)phenyl)-acetamide] | >125.0 µg/mL |  |  |  |  |  |  |  |  |  | 102.34% | 102.12% | 100.36% | 98.86% | 94.31% | 99.83% | 103.01% | 105.39% | 100.01% | 100.69% | T. gondii intracellular proliferation ([2]; 3.9 µg/ml): 69.35%; T. gondii intracellular proliferation ([2]; 7.8 µg/ml): 66.62%; T. gondii intracellular proliferation ([2]; 15.6 µg/ml): 46.71%; T. gondii intracellular proliferation ([2]; 31.2 µg/ml): 42.95%; T. gondii intracellular proliferation ([2]; 62.5 µg/ml): 41.74%; T. gondii intracellular proliferation ([2]; 125.0 µg/ml): 19.11%; IC50 (50% inhibition of T. gondii proliferation in vitro) [2]: 18.70 µg/mL
4 | C/C(=N\Nc1nc(-c2ccc([N+](=O)[O-])cc2)cs1)c1ccc(Nc2nc(N)nc(N)n2)cc1 [Compound 4h, (E)-N^2-(4-(1-(2-(4-(4-nitrophenyl)-1,3-thiazol-2-yl)hydrazinylidene)ethyl)phenyl)-1,3,5-triazine-2,4,6-triamine] | >125.0 µg/mL | 103% | 105% | 113% | 101% | 85.7% | 77.5% | 74% | 39.4% | 119 µg/mL (≈ 257 µM) |  |  |  |  |  |  |  |  |  |  | 
5 | C/C(=N\Nc1nc(-c2ccc(Cl)c(Cl)c2)cs1)c1ccc(Nc2nc(N)nc(N)n2)cc1 [Compound 4i, (E)-N^2-(4-(1-(2-(4-(3,4-dichlorophenyl)-1,3-thiazol-2-yl)hydrazinylidene)ethyl)phenyl)-1,3,5-triazine-2,4,6-triamine] | >62.5 µg/mL | 101% | 102% | 79% | 55.9% | 45.7% | 41.1% |  |  | 14.9 µg/mL (≈ 30.7 µM) |  |  |  |  |  |  |  |  |  |  | 
